pEC50: −log10 of the molar value.
Target: T1, CFTR (F508del/MF-HBE cells) (Homo sapiens, UniProt P13569, DEL508-508)
T1 construct: human bronchial epithelial (HBE) cells derived from CF subjects heterozygous for F508del and a minimal function CFTR mutation (F508del/MF-HBE); endogenous in cells; host or cells: primary human bronchial epithelial (HBE) cells from CF subjects, genotype F508del/minimal function
Test: Ussing chamber assay of CFTR-mediated short-circuit currents (potentiator identification)
Format: cell-based
Conditions: CFTR-mediated Isc, 18-24 h incubation at 37° C. with 10 μM (14S)-8-[3-(2-{dispiro[2.0.2.1]heptan-7-yl}ethoxy)-1H-pyrazol-1-yl]-... corrector, 20% human serum
Description: Ussing Chamber Assay of CFTR-Mediated Short-Circuit Currents
Ussing chamber experiments were performed using human bronchial epithelial (HBE) cells derived from CF subjects heterozygous for F508del and a minimal function CFTR mutation (F508del/MF-HBE) and cultured as previously described (Neuberger T, Burton B, Clark H, Van Goor F Methods Mol Biol 2011:741:39-54). After four days the apical media was removed, and the cells were grown at an air liquid interface for >14 days prior to use.
To isolate the CFTR-mediated short-circuit (Isc) current, F508del/MF-HBE grown on Costar® Snapwell™ cell culture inserts were mounted in an Ussing chamber and the transepithelial ISC was measured under voltage-clamp recording conditions (Vhold=0 mV) at 37° C. The basolateral solution contained (in mM) 145 NaCl, 0.83 K2HPO4, 3.3 KH2PO4, 1.2 MgCl2, 1.2 CaCl2, 10 Glucose, 10 HEPES (pH adjusted to 7.4 with NaOH) and the apical solution contained (in mM) 145 NaGluconate, 1.2 MgCl2, 1.2 CaCl2, 10 glucose, 10 HEPES (pH adjusted to 7.4 with NaOH) and 30 μM amiloride to block the epithelial sodium channel. Forskolin (20 μM) was added to the apical surface to activate CFTR, followed by apical addition of a CFTR inhibitor cocktail consisting of BPO, GlyH-101 and CFTR inhibitor 172 (each at 20 μM final assay concentration) to specifically isolate CFTR currents. The CFTR-mediated Isc (μA/cm^2) for each condition was determined from the peak forskolin response to the steady-state current following inhibition.
Identification of Potentiator Compounds
The activity of the CFTR potentiator compounds on the CFTR-mediated Isc was determined in Ussing chamber studies as described above. The F508del/MF-HBE cell cultures were incubated with the potentiator compounds at a range of concentrations in combination with 10 μM (14S)-8-[3-(2-{dispiro[2.0.2.1]heptan-7-yl}ethoxy)-1H-pyrazol-1-yl]-12,12-dimethyl-2λ^6-thia-3,9,11,18,23-pentaazatetracyclo[17.3.1.111,14.05,10]tetracosa-1(22),5,7,9,19(23),20-hexaene-2,2,4-trione for 18-24 hours at 37° C. and in the presence of 20% human serum. The concentration of potentiator compounds and (14S)-8-[3-(2-{dispiro[2.0.2.1]heptan-7-yl}ethoxy)-1H-pyrazol-1-yl]-12,12-dimethyl-2λ^6-thia-3,9,11,18,23-pentaazatetracyclo[17.3.1.111,14.05,10]tetracosa-1(22),5,7,9,19(23),20-hexaene-2,2,4-trione used during the 18-24 hours incubations was kept constant throughout the Ussing chamber measurement of the CFTR-mediated Isc to ensure compounds were present throughout the entire experiment. The efficacy and potency of the putative F508del potentiators was compared to that of the known Vertex potentiator, ivacaftor (N-[2,4-bis(1,1-dimethylethyl)-5-hydroxyphenyl]-1,4-dihydro-4-oxoquinoline-3-carboxamide).

T1 sequence (P13569 with tags, fused parts or gaps DEL508-508): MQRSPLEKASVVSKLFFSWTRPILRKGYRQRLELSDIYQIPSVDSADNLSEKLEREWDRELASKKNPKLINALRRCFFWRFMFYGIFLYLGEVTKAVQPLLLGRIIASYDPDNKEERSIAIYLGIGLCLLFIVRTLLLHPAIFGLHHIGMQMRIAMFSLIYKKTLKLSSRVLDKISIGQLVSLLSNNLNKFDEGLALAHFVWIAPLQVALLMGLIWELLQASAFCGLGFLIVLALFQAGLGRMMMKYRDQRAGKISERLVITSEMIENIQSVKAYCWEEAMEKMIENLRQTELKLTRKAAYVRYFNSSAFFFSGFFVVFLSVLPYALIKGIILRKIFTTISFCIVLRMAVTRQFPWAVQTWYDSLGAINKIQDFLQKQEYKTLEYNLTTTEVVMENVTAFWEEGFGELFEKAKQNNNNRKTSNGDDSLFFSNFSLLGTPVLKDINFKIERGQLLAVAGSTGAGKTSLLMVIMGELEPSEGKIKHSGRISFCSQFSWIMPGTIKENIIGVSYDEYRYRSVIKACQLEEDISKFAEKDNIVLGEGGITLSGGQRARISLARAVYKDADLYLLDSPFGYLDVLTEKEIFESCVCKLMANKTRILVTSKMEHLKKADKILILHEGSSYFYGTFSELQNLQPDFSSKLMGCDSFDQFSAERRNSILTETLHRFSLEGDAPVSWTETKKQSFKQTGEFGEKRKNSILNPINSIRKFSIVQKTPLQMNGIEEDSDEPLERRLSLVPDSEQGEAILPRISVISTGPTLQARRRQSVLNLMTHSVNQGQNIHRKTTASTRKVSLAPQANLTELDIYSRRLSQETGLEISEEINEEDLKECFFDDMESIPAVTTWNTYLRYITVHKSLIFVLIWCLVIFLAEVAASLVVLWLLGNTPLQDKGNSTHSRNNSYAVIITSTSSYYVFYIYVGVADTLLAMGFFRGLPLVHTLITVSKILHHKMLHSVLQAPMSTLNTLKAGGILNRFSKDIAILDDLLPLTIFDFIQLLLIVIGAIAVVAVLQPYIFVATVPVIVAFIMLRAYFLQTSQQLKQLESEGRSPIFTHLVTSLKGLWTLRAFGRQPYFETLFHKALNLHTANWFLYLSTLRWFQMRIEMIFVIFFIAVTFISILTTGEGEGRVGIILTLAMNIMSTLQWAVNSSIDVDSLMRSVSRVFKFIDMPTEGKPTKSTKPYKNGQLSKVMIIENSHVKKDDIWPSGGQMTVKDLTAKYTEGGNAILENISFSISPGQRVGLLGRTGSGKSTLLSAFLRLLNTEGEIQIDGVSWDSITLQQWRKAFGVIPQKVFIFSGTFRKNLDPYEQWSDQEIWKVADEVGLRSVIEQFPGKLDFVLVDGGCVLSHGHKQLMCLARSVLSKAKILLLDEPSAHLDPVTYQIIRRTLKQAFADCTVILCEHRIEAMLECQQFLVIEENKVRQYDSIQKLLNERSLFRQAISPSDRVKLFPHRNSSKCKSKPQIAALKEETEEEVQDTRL

| Structure (SMILES) | pEC50 |
| --- | --- |
| C[C@@H]1CCCCC(O)C(O)(C(F)(F)F)C2=NN=C(O2)c2nc(c(C(F)(F)F)cc2N)O1 (single isomer, unassigned) [Compound 56] | < 6.00 |
| Nc1cc(C(F)(F)F)c2nc1-c1nnc(o1)[C@@](O)(C(F)(F)F)CCCCC[S+]2[O-] (single isomer, unassigned) [Compound 24] | < 6.00 |
| CC1CCC(O)(C(F)(F)F)C2=NN=C(O2)c2nc(c(C(F)(F)F)cc2N)Oc2cccc1c2 (stereo not drawn) [Compound 29, 19-amino-9-methyl-6,17-bis(trifluoromethyl)-15,22-dioxa-3,4,20-triazatetracyclo[14.3.1.12,5.110,14]docosa-1(20),2,4,10(21),11,13,16,18-octaen-6-ol] | > 6.30 |
| Nc1cc(C(F)(F)F)c2nc1-c1nnc(o1)[C@@](O)(C(F)(F)F)CCCCCC(CC1CC1)O2 (single isomer, unassigned) [Compound 48] | > 6.30 |
| Nc1cc(C(F)(F)F)c2nc1-c1nnc(o1)C(O)(C(F)(F)F)CCCCc1cc(F)cc(c1)O2 (single isomer, unassigned) [Compound 32, 20-amino-13-fluoro-6,18-bis(trifluoromethyl)-16,23-dioxa-3,4,21-triazatetracyclo[15.3.1.12,5.111,15]tricosa-1(21),2,4,11(22),12,14,17,19-octaen-6-ol] | < 6.00 |
| Nc1cc(C(F)(F)F)c2nc1-c1nnc(o1)C(O)(C(F)(F)F)CCCCCCO2 (racemic) [Compound 4, 17-Amino-6,15-bis(trifluoromethyl)-13,19-dioxa-3,4,18-triazatricyclo[12.3.1.12,5]nonadeca-1(18),2,4,14,16-pentaen-6-ol] | > 6.30 |
| C[C@@H]1CCC(O)CC[C@](O)(C(F)(F)F)C2=NN=C(O2)c2nc(c(C(F)(F)F)cc2N)O1 (single isomer, unassigned) [Compound 45] | > 6.30 |
| OC1(C(F)(F)F)CCCCCCOc2nc(ccc2C(F)(F)F)C2=NN=C1O2 (racemic) [Compound 1, 6,15-bis(trifluoromethyl)-13,19-dioxa-3,4,18-triazatricyclo[12.3.1.12,5]nonadeca-1(17),2,4,14(18),15-pentaen-6-ol] | < 6.00 |
| CC1CCC(O)(C(F)(F)F)C2=NN=C(O2)c2nc(c(C(F)(F)F)cc2N)Oc2cc(F)cc1c2 (single isomer, unassigned) [Compound 33, 19-amino-12-fluoro-9-methyl-6,17-bis(trifluoromethyl)-15,22-dioxa-3,4,20-triazatetracyclo[14.3.1.12,5.110,14]docosa-1(20),2,4,10(21),11,13,16,18-octaen-6-ol] | > 6.30 |
| Nc1cc(C(F)(F)F)c2nc1-c1nnc(o1)[C@@](O)(C(F)(F)F)CCCCC[S+]2[O-] (single isomer, unassigned) [Compound 23] | < 6.00 |
| Nc1cc(C(F)(F)F)c2nc1-c1nnc(o1)[C@@](O)(C(F)(F)F)CCCCCC(Cc1ccc(F)cc1)O2 (single isomer, unassigned) [Compound 49] | > 6.30 |
| Nc1cc(C(F)(F)F)c2nc1-c1nnc(o1)[C@@](O)(C(F)(F)F)CCCCCCS2 [Compound 21, (6R)-17-Amino-6,15-bis(trifluoromethyl)-19-oxa-13-thia-3,4,18-triazatricyclo[12.3.1.12,5]nonadeca-1(18),2,4,14,16-pentaen-6-ol] | > 6.30 |
| Nc1cc(C(F)(F)F)c2nc1-c1nnc(o1)[C@@](O)(C(F)(F)F)CCCCC[C@H](CO)O2 [Compound 36, (6R,12R)-17-amino-12-(hydroxymethyl)-6,15-bis(trifluoromethyl)-13,19-dioxa-3,4,18-triazatricyclo[12.3.1.12,5]nonadeca-1(18),2,4,14,16-pentaen-6-ol] | > 6.30 |
| C[C@@H]1CC2CC2CC[C@](O)(C(F)(F)F)C2=NN=C(O2)c2nc(c(C(F)(F)F)cc2N)O1 (single isomer, unassigned) [Compound 64] | > 6.30 |
| Nc1cc(C(F)(F)F)c2nc1-c1nnc(o1)C(O)(C(F)(F)F)CCCCc1cccc(c1)O2 (single isomer, unassigned) [Compound 28, 20-amino-6,18-bis(trifluoromethyl)-16,23-dioxa-3,4,21-triazatetracyclo[15.3.1.12,5.111,15]tricosa-1(21),2,4,11(22),12,14,17,19-octaen-6-ol] | < 6.00 |
| Nc1cc(C(F)(F)F)c2nc1-c1nnc(o1)[C@@](O)(C(F)(F)F)CCCCCC[S@@+]2[O-] [Compound 20, (6R,13R)-17-amino-13-oxido-6,15-bis(trifluoromethyl)-19-oxa-13-thionia-3,4,18-triazatricyclo[12.3.1.12,5]nonadeca-1(18),2,4,14,16-pentaen-6-ol] | 6.00 to 6.30 |
| OC1(C(F)(F)F)CCCCCCOc2nc(ccc2C(F)(F)F)C2=NN=C1O2 (single isomer, unassigned) [Compound 3, 6,15-bis(trifluoromethyl)-13,19-dioxa-3,4,18-triazatricyclo[12.3.1.12,5]nonadeca-1(17),2,4,14(18),15-pentaen-6-ol] | < 6.00 |
| Nc1cc(C(F)(F)F)c2nc1-c1nnc(o1)C(O)(C(F)(F)F)CCCCc1cccc(c1)O2 (single isomer, unassigned) [Compound 27, 20-amino-6,18-bis(trifluoromethyl)-16,23-dioxa-3,4,21-triazatetracyclo[15.3.1.12,5.111,15]tricosa-1(21),2,4,11(22),12,14,17,19-octaen-6-ol] | > 6.30 |

More lines, now with the values ahead:

| pEC50 | Structure (SMILES) |
| --- | --- |
| > 6.30 | C[C@@H]1CC(O)CCC[C@](O)(C(F)(F)F)C2=NN=C(O2)c2nc(c(C(F)(F)F)cc2N)O1 (single isomer, unassigned) [Compound 43] |
| > 6.30 | C[C@H]1CCCCC[C@](O)(C(F)(F)F)C2=NN=C(O2)c2nc(c(C(F)(F)F)cc2N)O1 [Compound 14, (6R,12S)-17-amino-12-methyl-6,15-bis(trifluoromethyl)-13,19-dioxa-3,4,18-triazatricyclo[12.3.1.12,5]nonadeca-1(18),2,4,14,16-pentaen-6-ol] |
| > 6.30 | C[C@@H]1CCCCC[C@@](O)(C(F)(F)F)C2=NN=C(O2)c2nc(c(C(F)(F)F)cc2N)O1 [Compound 12, (6S,12R)-17-Amino-12-methyl-6,15-bis(trifluoromethyl)-13,19-dioxa-3,4,18-triazatricyclo[12.3.1.12,5]nonadeca-1(18),2,4,14,16-pentaen-6-ol] |
| > 6.30 | C[C@@H]1CCC(O)CC[C@](O)(C(F)(F)F)C2=NN=C(O2)c2nc(c(C(F)(F)F)cc2N)O1 (single isomer, unassigned) [Compound 42] |
| > 6.30 | C[C@@H]1CCCCC[C@](O)(C(F)(F)F)C2=NN=C(O2)c2nc(c(C(F)(F)F)cc2N)O1 [Compound 11, (6R,12R)-17-amino-12-methyl-6,15-bis(trifluoromethyl)-13,19-dioxa-3,4,18-triazatricyclo[12.3.1.12,5]nonadeca-1(18),2,4,14,16-pentaen-6-ol] |
| > 6.30 | C[C@@H]1CCC(=O)CC[C@](O)(C(F)(F)F)C2=NN=C(O2)c2nc(c(C(F)(F)F)cc2N)O1 [Compound 26, (6R,12R)-17-amino-6-hydroxy-12-methyl-6,15-bis(trifluoromethyl)-13,19-dioxa-3,4,18-triazatricyclo[12.3.1.12,5]nonadeca-1(18),2,4,14,16-pentaen-9-one] |
| > 6.30 | CC1(C)CCCC[C@](O)(C(F)(F)F)C2=NN=C(O2)c2nc(c(C(F)(F)F)cc2N)OC1 [Compound 61, (6R)-17-amino-11,11-dimethyl-6,15-bis(trifluoromethyl)-13,19-dioxa-3,4,18-triazatricyclo[12.3.1.12,5]nonadeca-1(18),2,4,14,16-pentaen-6-ol] |
| > 6.30 | CC(C)C1CCCCC[C@](O)(C(F)(F)F)C2=NN=C(O2)c2nc(c(C(F)(F)F)cc2N)O1 (single isomer, unassigned) [Compound 35] |
| > 6.30 | CC1CCCCCC(O)(C(F)(F)F)C2=NN=C(O2)c2nc(c(C(F)(F)F)cc2N)O1 (stereo not drawn) [Compound 8, 17-amino-12-methyl-6,15-bis(trifluoromethyl)-13,19-dioxa-3,4,18-triazatricyclo[12.3.1.12,5]nonadeca-1(18),2,4,14,16-pentaen-6-ol] |

From patent US12269831B2, “Modulators of cystic fibrosis transmembrane conductance regulator” (Vertex Pharmaceuticals Incorporated, priority 2020, dated 2025)
